Here are results for eleven compounds from ChEMBL document CHEMBL1255559, “Novel macrocyclic HCV NS3 protease inhibitors derived from α-amino cyclic boronates” (Bioorg Med Chem Lett, 2010).

Structures are written as SMILES.

As usually defined, the EC50 is the concentration at which the effect is half-maximal. A higher EC50 goes with a less potent agent. Broadly, the IC50 is the concentration that gives 50% inhibition. A lower IC50 goes with greater potency in that assay.

Assay [1] relates to Hepatitis C virus. Briefly: Antiviral activity against HCV 1a infected in human hepatoma cells by replicon assay. The assay is classed as functional, organism-based, Hepacivirus hominis. As to conditions: subtype 1a.
In assay [2] the test system is Hepatitis C virus. Briefly: Antiviral activity against HCV 1b infected in human hepatoma cells by replicon assay. Format: functional, organism-based, Hepacivirus hominis. Conditions: genotype 1b.
A short description of assay [3]: Inhibition of HCV 1a NS3/4A protease by FRET assay. Also on record: species or system Hepatitis C virus subtype 1a.

`CC(C)(C)[C@H](NC(=O)OC1CCCC1)C(=O)N1C[C@H](OC(=O)N2Cc3cccc(F)c3C2)C[C@H]1C(=O)N[C@@H]1BOCC1`: the EC50 in assay [1] is 8700 nM; in assay [2], > 10000 nM.
In assay [3], `CC1(C)CCCCc2cccc3c2CN(C3)C(=O)O[C@@H]2C[C@@H](C(=O)N[C@@H]3BOCC3)N(C2)C(=O)[C@H](C(C)(C)C)NC(=O)OC1` had an IC50 of 43 nM. In addition, the results for the EC50 in assay [1] and in assay [2] were 780 nM and 354 nM, respectively.
With `C[C@H]1COB[C@H]1NC(=O)[C@@H]1C[C@@H]2CN1C(=O)[C@H](C(C)(C)C)NC(=O)OCC(C)(C)CCCCc1cccc3c1CN(C3)C(=O)O2`, the IC50 in assay [3] came out at 130 nM. The concentration for a half-maximal effect (EC50) in assay [1] was found to be 1900 nM; in assay [2] it was 1700 nM.
In assay [3], `CC1(C)CCCCc2cccc3c2CN(C3)C(=O)O[C@@H]2C[C@@H](C(=O)N[C@@H]3BOC[C@@H]3C3CC3)N(C2)C(=O)[C@H](C(C)(C)C)NC(=O)OC1` had an IC50 of 110 nM. Also, the concentration giving a half-maximal response (EC50) in assay [1] is 980 nM; in assay [2], 4200 nM.
Turning to `CC1(C)CCCCc2cccc3c2CN(C3)C(=O)O[C@@H]2C[C@@H](C(=O)N[C@H]3CCCOB3O)N(C2)C(=O)[C@H](C(C)(C)C)NC(=O)OC1`, in assay [3], half-maximal inhibition (IC50) required 62 nM. The values for the half-maximal effective concentration (EC50) in assay [1] and in assay [2] were 1300 nM and 2800 nM, respectively.
With `CC1(C)CCCCc2cccc3c2CN(C3)C(=O)O[C@@H]2C[C@@H](C(=O)N[C@H]3CCCCOB3O)N(C2)C(=O)[C@H](C(C)(C)C)NC(=O)OC1`, 47 nM corresponded to half-maximal inhibition in assay [3] (IC50). The 50% effective concentration (EC50) in assay [1] stood at 380 nM; in assay [2], 200 nM.
For `CC1(C)CCCCc2cccc3c2CN(C3)C(=O)O[C@@H]2C[C@@H](C(=O)N[C@H]3BOCC3)N(C2)C(=O)[C@H](C(C)(C)C)NC(=O)OC1` the same measures were 1400 nM, 11000 nM and > 50000 nM.
For `C[C@@H]1COB[C@@H]1NC(=O)[C@@H]1C[C@@H]2CN1C(=O)[C@H](C(C)(C)C)NC(=O)OCC(C)(C)CCCCc1cccc3c1CN(C3)C(=O)O2` the same measures were 25000 nM, 33000 nM and 30000 nM.
Regarding `CC1(C)CCCCc2cccc3c2CN(C3)C(=O)O[C@@H]2C[C@@H](C(=O)N[C@@H]3CCCOB3O)N(C2)C(=O)[C@H](C(C)(C)C)NC(=O)OC1`, half-maximal inhibition in assay [3] (IC50) required 1300 nM. Further, the half-maximal effective concentration (EC50) in assay [1] was 12000 nM; in assay [2], > 25000 nM.
On to `CC1(C)CCCCc2cccc3c2CN(C3)C(=O)O[C@@H]2C[C@@H](C(=O)N[C@@H]3CCCCOB3O)N(C2)C(=O)[C@H](C(C)(C)C)NC(=O)OC1`, for which, in assay [3], half-maximal inhibition (IC50) required 300 nM. The concentration giving a half-maximal response (EC50) in assay [1] is 3700 nM; in assay [2] it was 3900 nM.
Turning to `CC[C@@H]1C[C@]1(NC(=O)[C@@H]1C[C@@H]2CN1C(=O)[C@H](C(C)(C)C)NC(=O)OCC(C)(C)CCCCc1cccc3c1CN(C3)C(=O)O2)C(=O)NS(=O)(=O)C1CC1`, the EC50 in assay [1] and in assay [2] was ≤ 1 nM throughout.
